Experimental data from ChEMBL document CHEMBL6182889, “Discovery of the first-in-class DOT1L PROTAC degrader” (Eur J Med Chem, 2025).
Activity calls are given as the source filed them. The rule behind the calls is not given here.

Key:
MOLM-13 = experiment: Effect on DOT1L mRNA expression in mixed-lineage leukemia rearranged (MLL-r) human MOLM-13 cells at 3 uM incubated for 24 hrs by RT-qPCR analysis; type: functional, cell-based
[1] = biological target: T1, von Hippel-Lindau disease tumor suppressor/Histone-lysine N-methyltransferase, H3 lysine-79 specific (Homo sapiens, UniProt Q8TEK3+P40337); experiment: PROTAC activity at VHL/DOT1L in mixed-lineage leukemia rearranged (MLL-r) human THP-1 cells assessed as induction of DOT1L degradation incubated for 24 hrs by western blot analysis; type: cell-based
[2] = biological target: T1, von Hippel-Lindau disease tumor suppressor/Histone-lysine N-methyltransferase, H3 lysine-79 specific; experiment: PROTAC activity at VHL/DOTIL in mixed-lineage leukemia rearranged (MLL-r) human THP-1 cells assessed as induction of DOT1L degradation by measuring reduction in DOTIL protein level at 3 uM incubated for 24 hrs by western blot analysis relative to control; type: cell-based; design: scale not given: the % may be the effect or the level left
Target sequence in this assay (P40337 whole entry, looked up): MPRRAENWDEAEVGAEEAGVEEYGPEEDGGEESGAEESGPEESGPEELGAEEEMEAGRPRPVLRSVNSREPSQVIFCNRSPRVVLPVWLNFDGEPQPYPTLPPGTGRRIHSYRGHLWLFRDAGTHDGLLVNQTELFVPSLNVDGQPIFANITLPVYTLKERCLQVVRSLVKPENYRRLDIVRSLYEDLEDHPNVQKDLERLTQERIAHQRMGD
Target sequence in this assay (Q8TEK3 whole entry, looked up): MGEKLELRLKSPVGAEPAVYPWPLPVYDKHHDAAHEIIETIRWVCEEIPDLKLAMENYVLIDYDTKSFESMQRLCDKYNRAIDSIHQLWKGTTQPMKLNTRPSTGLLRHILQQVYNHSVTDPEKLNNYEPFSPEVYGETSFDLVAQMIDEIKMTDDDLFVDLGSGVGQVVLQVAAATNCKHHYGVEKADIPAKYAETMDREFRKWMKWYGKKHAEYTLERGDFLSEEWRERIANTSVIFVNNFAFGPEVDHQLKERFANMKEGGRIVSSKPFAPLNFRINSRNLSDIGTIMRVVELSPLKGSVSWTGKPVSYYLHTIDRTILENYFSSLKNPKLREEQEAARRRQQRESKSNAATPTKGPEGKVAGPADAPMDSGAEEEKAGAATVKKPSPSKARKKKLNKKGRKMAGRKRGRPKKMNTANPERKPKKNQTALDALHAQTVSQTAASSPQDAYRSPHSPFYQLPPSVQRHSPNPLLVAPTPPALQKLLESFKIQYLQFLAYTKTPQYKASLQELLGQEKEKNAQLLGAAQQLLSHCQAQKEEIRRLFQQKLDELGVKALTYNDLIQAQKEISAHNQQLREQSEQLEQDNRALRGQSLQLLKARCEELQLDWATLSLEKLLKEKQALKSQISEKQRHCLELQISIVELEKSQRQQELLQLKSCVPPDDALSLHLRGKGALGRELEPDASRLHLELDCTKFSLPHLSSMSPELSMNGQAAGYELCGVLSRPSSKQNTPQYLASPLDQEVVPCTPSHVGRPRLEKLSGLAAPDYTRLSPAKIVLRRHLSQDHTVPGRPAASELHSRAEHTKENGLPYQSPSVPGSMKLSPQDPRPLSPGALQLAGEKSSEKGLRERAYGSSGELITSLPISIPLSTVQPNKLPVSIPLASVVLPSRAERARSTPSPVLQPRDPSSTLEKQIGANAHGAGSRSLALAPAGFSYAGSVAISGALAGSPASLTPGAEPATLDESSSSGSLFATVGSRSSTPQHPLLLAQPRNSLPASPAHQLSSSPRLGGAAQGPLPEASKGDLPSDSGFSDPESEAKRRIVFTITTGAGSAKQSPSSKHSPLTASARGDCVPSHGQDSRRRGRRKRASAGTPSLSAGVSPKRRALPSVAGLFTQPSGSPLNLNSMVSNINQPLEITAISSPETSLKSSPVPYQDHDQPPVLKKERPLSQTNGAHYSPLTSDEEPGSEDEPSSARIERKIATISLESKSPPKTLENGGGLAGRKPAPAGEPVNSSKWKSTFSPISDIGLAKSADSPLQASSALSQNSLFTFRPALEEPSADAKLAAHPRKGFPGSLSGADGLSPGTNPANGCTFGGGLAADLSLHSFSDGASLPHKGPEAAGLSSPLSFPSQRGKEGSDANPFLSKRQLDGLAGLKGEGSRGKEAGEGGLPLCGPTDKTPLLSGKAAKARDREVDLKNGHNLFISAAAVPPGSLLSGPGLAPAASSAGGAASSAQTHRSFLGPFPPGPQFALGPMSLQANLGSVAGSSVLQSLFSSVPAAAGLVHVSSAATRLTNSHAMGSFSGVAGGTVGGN

[3] = biological target: Protein arginine N-methyltransferase 6 (Homo sapiens) (UniProt Q96LA8); experiment: Inhibition of PRMT6 (unknown origin) at 10 uM by radiometric methyltransferase assay
[4] = biological target: T1, von Hippel-Lindau disease tumor suppressor/Histone-lysine N-methyltransferase, H3 lysine-79 specific; experiment: PROTAC activity at VHL/DOT1L in mixed-lineage leukemia rearranged (MLL-r) human MV4-11 cells assessed as induction of DOTIL degradation by measuring fold change in H3K79Me2 level at 3 uM incubated for 8 hrs by western blot analysis relative to control; type: cell-based
Target sequence in this assay (P40337 whole entry, looked up): as the sequence (P40337 whole entry, looked up) above
Target sequence in this assay (Q8TEK3 whole entry, looked up): as the sequence (Q8TEK3 whole entry, looked up) above

[5] = biological target: T2, Histone-lysine N-methyltransferase NSD2 (Homo sapiens) (UniProt O96028); experiment: Inhibition of human NSD2 using nucleosomes and SAM as substrate at 10 uM by radiometric Hotspot assay
T2 sequence (whole entry): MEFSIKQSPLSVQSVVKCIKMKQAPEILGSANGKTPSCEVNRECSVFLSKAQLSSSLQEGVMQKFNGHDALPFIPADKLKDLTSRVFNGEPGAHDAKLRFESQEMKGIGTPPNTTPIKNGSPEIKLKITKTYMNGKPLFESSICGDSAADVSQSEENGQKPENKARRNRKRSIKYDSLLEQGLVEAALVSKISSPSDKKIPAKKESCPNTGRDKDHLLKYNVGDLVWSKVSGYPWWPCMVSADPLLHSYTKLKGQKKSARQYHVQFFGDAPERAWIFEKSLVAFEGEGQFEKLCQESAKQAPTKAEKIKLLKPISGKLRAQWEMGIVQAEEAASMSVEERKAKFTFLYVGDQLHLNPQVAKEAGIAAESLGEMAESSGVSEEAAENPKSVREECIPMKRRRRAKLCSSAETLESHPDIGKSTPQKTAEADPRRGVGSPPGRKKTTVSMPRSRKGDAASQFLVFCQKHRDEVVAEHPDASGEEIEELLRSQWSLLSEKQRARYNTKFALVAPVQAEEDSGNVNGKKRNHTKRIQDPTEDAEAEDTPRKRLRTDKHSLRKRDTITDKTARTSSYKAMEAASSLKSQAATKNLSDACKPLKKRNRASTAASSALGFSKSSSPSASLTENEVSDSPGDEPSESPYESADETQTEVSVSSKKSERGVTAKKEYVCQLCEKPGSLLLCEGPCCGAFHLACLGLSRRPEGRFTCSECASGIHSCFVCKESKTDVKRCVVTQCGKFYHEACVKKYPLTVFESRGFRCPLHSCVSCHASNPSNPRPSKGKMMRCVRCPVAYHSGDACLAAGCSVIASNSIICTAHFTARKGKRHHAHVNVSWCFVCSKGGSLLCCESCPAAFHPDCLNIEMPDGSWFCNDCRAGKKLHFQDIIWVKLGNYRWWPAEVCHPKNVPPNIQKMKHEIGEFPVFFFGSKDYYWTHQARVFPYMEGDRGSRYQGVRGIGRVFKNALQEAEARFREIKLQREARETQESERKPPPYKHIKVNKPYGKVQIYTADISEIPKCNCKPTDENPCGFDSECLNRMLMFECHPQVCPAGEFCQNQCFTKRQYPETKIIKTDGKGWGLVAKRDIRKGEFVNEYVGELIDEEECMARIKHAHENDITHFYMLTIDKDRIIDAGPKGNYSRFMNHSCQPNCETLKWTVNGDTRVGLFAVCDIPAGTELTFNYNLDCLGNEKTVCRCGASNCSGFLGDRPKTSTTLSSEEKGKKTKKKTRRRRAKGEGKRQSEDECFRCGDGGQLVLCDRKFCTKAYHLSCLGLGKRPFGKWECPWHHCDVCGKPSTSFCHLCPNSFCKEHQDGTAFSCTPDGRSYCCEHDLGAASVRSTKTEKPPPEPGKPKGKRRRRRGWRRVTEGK

[6] = biological target: T1, von Hippel-Lindau disease tumor suppressor/Histone-lysine N-methyltransferase, H3 lysine-79 specific; experiment: PROTAC activity at VHL/DOT1L in mixed-lineage leukemia rearranged (MLL-r) human MV4-11 cells assessed as induction of DOTIL degradation by measuring fold change in DOT1L protein level at 3 uM incubated for 48 hrs by western blot analysis relative to control; type: cell-based
Target sequence in this assay (P40337 whole entry, looked up): as the sequence (P40337 whole entry, looked up) above
Target sequence in this assay (Q8TEK3 whole entry, looked up): as the sequence (Q8TEK3 whole entry, looked up) above

[7] = biological target: T1, von Hippel-Lindau disease tumor suppressor/Histone-lysine N-methyltransferase, H3 lysine-79 specific; experiment: PROTAC activity at VHL/DOT1L in mixed-lineage leukemia rearranged (MLL-r) human MV4-11 cells assessed as induction of DOTIL degradation by measuring fold change in H3K79Me2 level at 3 uM incubated for 1 hr by western blot analysis relative to control; type: cell-based
Target sequence in this assay (P40337 whole entry, looked up): as the sequence (P40337 whole entry, looked up) above
Target sequence in this assay (Q8TEK3 whole entry, looked up): as the sequence (Q8TEK3 whole entry, looked up) above

[8] = biological target: T1, von Hippel-Lindau disease tumor suppressor/Histone-lysine N-methyltransferase, H3 lysine-79 specific; experiment: PROTAC activity at VHL/DOT1L in mixed-lineage leukemia rearranged (MLL-r) human MV4-11 cells assessed as induction of DOTIL degradation by measuring fold change in DOT1L protein level at 3 uM incubated for 2 hrs by western blot analysis relative to control; type: cell-based
Target sequence in this assay (P40337 whole entry, looked up): as the sequence (P40337 whole entry, looked up) above
Target sequence in this assay (Q8TEK3 whole entry, looked up): as the sequence (Q8TEK3 whole entry, looked up) above

[9] = biological target: T1, von Hippel-Lindau disease tumor suppressor/Histone-lysine N-methyltransferase, H3 lysine-79 specific; experiment: PROTAC activity at VHL/DOTIL in mixed-lineage leukemia rearranged (MLL-r) human THP-1 cells assessed as induction of DOT1L degradation by measuring reduction in DOTIL protein level at 0.3 uM incubated for 24 hrs by western blot analysis relative to control; type: cell-based; design: scale not given: the % may be the effect or the level left
Target sequence in this assay (P40337 whole entry, looked up): as the sequence (P40337 whole entry, looked up) above
Target sequence in this assay (Q8TEK3 whole entry, looked up): as the sequence (Q8TEK3 whole entry, looked up) above

Protein arginine N-methyltransferase 6 (Homo sapiens), sequence (Q96LA8 whole entry, looked up): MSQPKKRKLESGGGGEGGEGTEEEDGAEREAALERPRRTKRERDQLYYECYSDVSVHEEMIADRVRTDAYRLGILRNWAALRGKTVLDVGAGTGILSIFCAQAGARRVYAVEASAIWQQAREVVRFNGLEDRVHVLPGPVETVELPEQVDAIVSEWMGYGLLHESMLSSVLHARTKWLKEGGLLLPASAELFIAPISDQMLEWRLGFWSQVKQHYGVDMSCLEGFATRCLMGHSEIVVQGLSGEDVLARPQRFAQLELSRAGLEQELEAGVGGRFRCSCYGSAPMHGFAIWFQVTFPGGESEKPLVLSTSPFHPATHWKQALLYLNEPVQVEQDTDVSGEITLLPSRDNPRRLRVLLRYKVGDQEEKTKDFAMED

With `Cc1ncsc1-c1ccc([C@H](CC(=O)NCCCCCCNC(=O)COc2nc(N)nc(Nc3cc(S(N)(=O)=O)ccc3N[C@@H](c3cccc4c3OC(F)(F)O4)c3ncccc3Cl)n2)NC(=O)[C@@H]2C[C@@H](O)CN2C(=O)[C@@H](NC(=O)C2(F)CC2)C(C)(C)C)cc1` the Activity (MOLM-13) was “inactive”, the Activity [1] was “Dose-dependent-effect” and the DC50 [1] was 56 nM. For the same compound, the Activity [2] was 77%, the inhibition [3] was “inactive” and the fold change (FC) [4] was 0.42. The inhibition [5] was “inactive”, the fold change (FC) [6] was 0.03 and the fold change (FC) [7] was 0.34. For the same compound, the fold change (FC) [8] was 0.86 and the Activity [9] was 70%.
